This note sets out measurements from the METLIN SMRT retention time set (Domingo-Almenara et al. 2019).

The data set in a line: gradient 5% acetonitrile 3 min, to 50% in 2 min, to 85% in 15 min, held 3 min, 100 µL/min. The note with it: column: Zorbax Extend-C18 2.1 x 50 mm; eluents: water / acetonitrile, 0.1% formic acid. Put shortly:
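Data were gathered over 3 months by HPLC coupled to a quadrupole time-of-flight mass spectrometer, operated in positive and negative ionization mode. Mixtures of ~100 pure standards ran on a Zorbax Extend-C18 column (2.1 × 50 mm, 1.8 μm) at 100 μL/min, with water and acetonitrile each containing 0.1% formic acid and dead and dwell volumes of 40 μL and 900 μL. Retention time was read from adduct peaks picked by computer and checked manually.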
With `CCN1c2ccccc2C(=O)NC12CCN(C(=O)Nc1ccc(OC)cc1)CC2`, the RP-LC retention time turned out to be 735 s.

With `CCn1nc(-c2ccc(C)c(S(=O)(=O)N3CCC(C(N)=O)CC3)c2)c2c(c1=O)CCCC2`, the RP-LC retention time amounted to 718 s.

On to `COc1ccccc1CNC(=O)Cn1c(N)nc(C)cc1=O`, for which the RP-LC retention time is 574 s.

Molecule `CCCCN(C)C(=O)CN1C(=O)C2CCCCN2c2ccc(S(=O)(=O)N(CC)CC)cc21` (stereo not given) returned an RP-LC retention time of 1010 s.

With `CCN1CCCc2cc(C(=O)NCc3cccc(OC)c3)sc21`, the RP-LC retention time came out at 962 s.

Turning to `Cc1ccc(C(=O)N2C[C@@H](C)[C@H](c3nc(C)no3)C2)cn1`, the RP-LC retention time was found to be 593 s.

In turn, `CCS(=O)(=O)c1nc2ccc(NS(=O)(=O)c3cc(C)c(C)cc3C)cc2s1` displayed an RP-LC retention time of 972 s.

`CCCN1CCN(S(=O)(=O)c2cc(-c3nnc(C(C)C)o3)co2)CC1` displayed an RP-LC retention time of 618 s.

The molecule `O=c1c2cc(-c3ccc(Br)cc3)nn2cnn1Cc1nc(-c2ccc(F)cc2)no1` had an RP-LC retention time of 1210 s.

`O=C(CSC1CCc2ccccc2NC1=O)Nc1ccc(F)c(Cl)c1` (stereo not given) gave an RP-LC retention time of 873 s.

The molecule `CCc1noc(NC(C)=O)c1-c1ccc(OC)c(S(=O)(=O)N2CCN(c3ncccn3)CC2)c1` gave an RP-LC retention time of 723 s.

The molecule `CCCN(C)CC1(O)CCC2(CCN(C(=O)c3ccc(Cl)s3)CC2)CC1` yielded an RP-LC retention time of 647 s.

Regarding `CCOC(=O)CCNC(=O)N1CCN(Cc2nc3cc(-c4ccccc4)ccc3o2)CC1`, the RP-LC retention time came to 675 s.

Molecule `Clc1cc(I)cc(Cl)c1NC1=NCCN1` came in with an RP-LC retention time of 655 s.

In turn, `Cc1ccc(S(=O)(=O)N2CCC(CCC(=O)N3CCN(C)CC3)CC2)cc1` registered an RP-LC retention time of 627 s.

`O=C(c1ccccc1Sc1nccnc1Oc1ccccc1)N1CCN(c2ccccn2)CC1` registered an RP-LC retention time of 691 s.

Take `CCn1nccc1-c1cccc(-c2noc(C3CCN(S(=O)(=O)c4ccc(C)cc4)CC3)n2)c1`: the RP-LC retention time was 1170 s.

In the case of `COc1ccc(-c2nnc(COc3cccc(NC(=O)C(NC(=O)c4ccco4)C(C)C)c3)o2)cc1` (stereo not given), the RP-LC retention time came to 1010 s.

In turn, `CCOc1ccc(N2CCn3c2nnc(C(=O)NCC2CCCO2)c3=O)cc1` (stereo not given) showed an RP-LC retention time of 637 s.

In turn, `O=c1c2sccc2n(Cc2nc(-c3ccccc3)no2)c(=O)n1-c1ccccc1` yielded an RP-LC retention time of 932 s.

For `O=C(N[C@H]1C[C@@H]2C[C@H]1CN2C(=O)NCCc1ccccc1)c1cccs1`, the RP-LC retention time is 716 s.

`CCOC(=O)c1cn[nH]c1S(=O)(=O)Nc1ccc2c(c1)OCCO2` had an RP-LC retention time of 683 s.

`Cc1cc(C)cc(NC(=O)Nc2nccn(-c3cc(Cl)ccc3C)c2=O)c1`: the RP-LC retention time is 1150 s.

`Cc1nc(Nc2ccc(F)cn2)sc1C(=O)N1CCN(C2CCCCC2)CC1` gave an RP-LC retention time of 639 s.

As for `CC(C)CN(C1CCOCC1)C1CN(C(=O)Nc2ccccc2)C1`, the RP-LC retention time was found to be 594 s.

Turning to `Cc1ccc(NC(=O)C2CCN(S(=O)(=O)c3cc(C(=O)N(C)C)cs3)CC2)cc1F`, the RP-LC retention time came out at 847 s.

As for `COC(=O)C1=C(CN2CCN(C)CC2)NC(=O)NC1c1ccc(Cl)cc1` (stereo not given), the RP-LC retention time amounted to 604 s.

With `CCC(=O)Nc1nc(-c2ccc3c(c2)N(C)C(=O)C(C)O3)cs1` (stereo not given), the RP-LC retention time is 801 s.

As to `CC1=C(C(=O)OCCC#N)C(c2ccccc2Cl)NC(=O)N1` (stereo not given), the RP-LC retention time was 668 s.

The molecule `O=C(Cn1nc2c(N3CCCCCC3)nccn2c1=O)Nc1ccc2c(c1)OCO2` gave an RP-LC retention time of 667 s.

`O=C(NCC1CN(c2ccccc2)C(=O)O1)Nc1ccccc1Cl` (stereo not given) displayed an RP-LC retention time of 776 s.

Turning to `Cc1noc(-c2ccc(=O)n(Cc3ccccc3F)n2)n1`, the RP-LC retention time came to 794 s.

On to `COCCNC(=O)c1ccc(CNS(=O)(=O)c2cc(C)ccc2C)cc1`, for which the RP-LC retention time came to 703 s.

Molecule `O=C(NC1CC1)c1ccc(-n2cccc2)nc1` returned an RP-LC retention time of 728 s.

Molecule `COc1ccc(OC)c(NC(=O)Cn2cccc(-c3nc(-c4ccc(F)cc4)no3)c2=O)c1` yielded an RP-LC retention time of 897 s.

`Cc1ccc(NC(=O)N2CC(n3ccnc3C(C)C)C2)cc1C`: the RP-LC retention time was found to be 642 s.

`CN1CCN(C(CNS(=O)(=O)c2cc(F)ccc2F)c2cccn2C)CC1` (stereo not given) showed an RP-LC retention time of 580 s.

As to `Cc1cc2n(n1)CCCN2C(=O)CCC(=O)N1CCN(c2cc(Cl)ccc2C)CC1`, the RP-LC retention time was found to be 852 s.

Take `COCC(=O)NC1CCC12CCN(C(=O)CC(C)C)CC2` (stereo not given): the RP-LC retention time was 675 s.

Molecule `O=C(Cc1nnc2cc(-c3nc(C4CC4)no3)ccn12)N1CCSCC1` registered an RP-LC retention time of 698 s.

For the molecule `COC1CN(c2cccc(F)c2)C12CCN(Cc1ccc(C)o1)CC2` (stereo not given), the RP-LC retention time came to 745 s.

With `COc1ccc(CN2CC(C(=O)N3CCN(c4cc(=O)n(C)c(=O)n4C)CC3)CC2=O)cc1` (stereo not given), the RP-LC retention time was 630 s.

With `Cc1nc(Cn2cccc2C(=O)Nc2cccc(C)c2C)no1`, the RP-LC retention time is 821 s.

The molecule `Cc1nnc2ccc(-c3noc(-c4cccc5[nH]ccc45)n3)cn12` displayed an RP-LC retention time of 843 s.

The molecule `CN(c1nccn2c(=O)n(CC(=O)Nc3ccc(F)cc3)nc12)C1CCCCC1` gave an RP-LC retention time of 749 s.

For `COc1ccc(S(=O)(=O)N2CCC(c3nc(C(=O)N4CCCC4)c(C)o3)CC2)cc1`, the RP-LC retention time was 871 s.

In turn, `Cc1cc(C)c(S(=O)(=O)N(CCN2CCCCC2C)CC(=O)N2CCNCC2)c(C)c1` (stereo not given) yielded an RP-LC retention time of 601 s.

`CCCn1c(-c2cccc(C(=O)NCC3CCCCC3)c2)nc2cccnc21` yielded an RP-LC retention time of 904 s.

The molecule `CCOc1ccc(NC(=O)CCSc2nnc(C)s2)cc1` came in with an RP-LC retention time of 709 s.

As for `CCOc1ccc(NS(=O)(=O)c2cc(-c3c(C)noc3NC(C)=O)ccc2OC)cc1`, the RP-LC retention time is 773 s.

The molecule `Cc1cc(C)cc(C(=O)N2CCN(c3cc(=O)n(C)c(=O)n3C)CC2)c1` returned an RP-LC retention time of 691 s.

Molecule `COCC(=O)NC(Cc1ccccc1)c1nnc(N2CCSCC2)o1` (stereo not given) had an RP-LC retention time of 721 s.

Molecule `OCc1ncc(-c2ccccc2)s1` displayed an RP-LC retention time of 762 s.

`Cc1nnc2sc(SCc3ccc(Cl)cc3Cl)nn2c1=O` registered an RP-LC retention time of 869 s.

With `CN(CCc1noc(-c2ccc(C(=O)N3CCCCC3)cc2)n1)C(=O)C1CC1`, the RP-LC retention time amounted to 742 s.

As for `CSc1cccc(NC(=O)c2cn3c(n2)CSCC3)c1`, the RP-LC retention time turned out to be 763 s.

Molecule `COc1ccc(-c2nc3cnccn3c2Nc2cccc(Cl)c2C)cc1OC` came in with an RP-LC retention time of 890 s.

As to `O=C(Nc1ccc2ncccc2c1)Nc1ccc2ncccc2c1`, the RP-LC retention time was found to be 604 s.

Take `CC(C)N1CCN(Cc2ccc(C(=O)N3CCN(C4CCCCC4)CC3)cc2)C(=O)C1=O`: the RP-LC retention time is 839 s.

As for `Cc1ccc(NC(=O)C(=O)NCC2CCN(S(C)(=O)=O)CC2)cc1N1CCCC1=O`, the RP-LC retention time was 627 s.
